# Data published in patent publication US20100249089A1, “ABCG2 INHIBITOR” (KABUSHIKI KAISHA YAKULT HONSHA, priority 2007, published 2010).
# Where two headings read alike, the source gives them in different places.
# Tests used:
# [1] = tested on: BCRP-gene-transfected human colon cancer HCT116 cells (HCT116/BCRP cells); assay: Effect of overcoming anticancer agent resistance in vivo (oral administration), HCT116/BCRP xenograft with CPT-11; set-up: species or system BALB/c male nude mice
# Procedure: To an inguinal region of each of 6-week-old BALB/c male nude mice (5 mice/group), BCRP-gene-transfected human colon cancer HCT116 cells (HCT116/BCRP cells) (obtained from Dr. Yoshikazu Sugimoto, The Cancer Chemotherapy Center of Japanese Foundation for Cancer Research) were subcutaneously transplanted (2×10^6 cells/0.1 mL/mouse). When the tumor volume as estimated from (1/2)ab^2 (a: longer tumor diameter, b: shorter tumor diameter) reached about 100 to 150 mm^3, each of the compounds of the present invention shown in Tables 1 to 4 and a positive control compound (i.e., Compound 14 ((Z)-2-(3,4-dimethoxy-phenyl)-3-{5-[4-(2-hydroxy-ethyl)-piperazin-1-yl]-thiophen-2-yl}-acrylonitrile hydrochloride)), disclosed in Patent Document 3 (WO 2006/106778)) (hereinafter referred to as Earlier Application Compound 14) was orally administered once a day for nine days (9 times in total). […] The dose of each of the compounds of the present invention was adjusted to 0.20 or 0.40 mmol/kg/day, and that of the positive control compound was adjusted to 0.23 or 0.46 mmol/kg/day. For administration, Compound 3 or 5 of the present invention was dissolved in 5% glucose solution, and Compound 4 or 6 was dissolved in Britton-Robinson buffer. […] A solvent was solely administered to a control group. On day 21 from start of administration, a tumor was extirpated from each mouse and weighed, and the tumor growth inhibition ratio IR (%) was derived from the following equation:
# Tumor growth inhibition ratio IR (%)=(1−average tumor weight of each administration group/average tumor weight of control group)×100.
# [2] = Solubility (HPLC quantification of supernatant); type: physicochemical; conditions: saline or isotonic, thermodynamic from solid; physiological saline, room temperature
# [3] = Solubility (HPLC quantification of supernatant); type: physicochemical; conditions: thermodynamic from solid, room temperature, stirred about 30 minutes, 100 mg/mL charged
# Procedure: Each (10 mg) of the compounds of the present invention and Earlier Application Compound 14 shown in Table 5 was weighed and placed in a sealable container, and water or 5% glucose solution was added to the container in such an amount as to adjust the final concentration to 100 mg/mL. The contents of the container were stirred at room temperature for about 30 minutes, followed by centrifugation. The compound concentration of the supernatant recovered through centrifugation was quantified through high-performance liquid chromatography.
# [4] = positive control 100 mg/kg/day (0.23 mmol/kg/day) oral for nine days + CPT-11 45 mg/kg/day i.v. day 1, 5, 9, day 21
# [5] = positive control 200 mg/kg/day (0.46 mmol/kg/day) oral for nine days + CPT-11 45 mg/kg/day i.v. day 1, 5, 9, day 21
# [6] = saline or isotonic, 5% glucose solution, read-out: Solubility in 5% glucose
# [7] = water, read-out: Solubility in water
# [8] = compound 0.20 mmol/kg/day oral once a day for nine days + CPT-11 45 mg/kg/day i.v. day 1, 5, 9, day 21, vs control group
# [9] = compound 0.20 mmol/kg/day oral once a day for nine days + CPT-11 45 mg/kg/day i.v. day 1, 5, 9, tumor weighed day 21
# [10] = compound 0.40 mmol/kg/day oral once a day for nine days + CPT-11 45 mg/kg/day i.v. day 1, 5, 9, day 21, vs control group
# [11] = compound 0.40 mmol/kg/day oral once a day for nine days + CPT-11 45 mg/kg/day i.v. day 1, 5, 9, tumor weighed day 21
Structure (SMILES),solubility [2],"solubility [3, 6]","solubility [3, 7]","Tumor growth inhibition ratio IR (%) [1, 8]","Tumor weight (g) Mean ± S.D. [1, 9]","Tumor growth inhibition ratio IR (%) [1, 10]","Tumor weight (g) Mean ± S.D. [1, 11]",also measured
"COc1ccc(/C(C#N)=C/c2ccc(N3CCN(CCO)CC3)s2)cc1OC.Cl [EAC 14, (Z)-2-(3,4-dimethoxy-phenyl)-3-{5-[4-(2-hydroxy-ethyl)-piperazin-1-yl]-thiophen-2-yl}-acrylonitrile hydrochloride, reference compound]",< 1 mg/mL,6.6 mg/mL,6.6 mg/mL,,,,,"Tumor growth inhibition ratio IR (%) [1, 4]: 23.9%; Tumor weight (g) Mean ± S.D. [1, 4]: 1.04 ± 0.17 g; Tumor growth inhibition ratio IR (%) [1, 5]: 35.6%; Tumor weight (g) Mean ± S.D. [1, 5]: 0.88 ± 0.14 g"
"COc1ccc(/C(C#N)=C/c2ccc(N3CCC(OC(=O)CN4CCN(C)CC4)CC3)s2)cc1OC.CS(=O)(=O)O [Compound 20, (4-methyl-piperazin-1-yl)-acetic acid 1-[5-[(Z)-2-cyano-2-(3,4-dimethoxy-phenyl)-vinyl]-thiophen-2-yl]-piperidin-4-yl ester methanesulfonate]",100 mg/mL,≥ 100 mg/mL,≥ 100 mg/mL,,,,,
"COc1ccc(/C(C#N)=C/c2ccc(N3CCC(OC(=O)CN4CCCCCCC4)CC3)s2)cc1OC.CS(=O)(=O)O [Compound 18, azocan-1-yl-acetic acid 1-[5-[(Z)-2-cyano-2-(3,4-dimethoxy-phenyl)-vinyl]-thiophen-2-yl]-piperidin-4-yl ester methanesulfonate]",,≥ 100 mg/mL,≥ 100 mg/mL,,,,,
"COc1ccc(/C(C#N)=C/c2ccc(N3CCC(OC(=O)CN4CCCCCC4)CC3)s2)cc1OC.CS(=O)(=O)O [Compound 16, azepan-1-yl-acetic acid 1-[5-[(Z)-2-cyano-2-(3,4-dimethoxy-phenyl)-vinyl]-thiophen-2-yl]-piperidin-4-yl ester methanesulfonate]",,≥ 100 mg/mL,≥ 100 mg/mL,,,,,
"COc1ccc(/C(C#N)=C/c2ccc(N3CCC(OC(=O)CN4CCOCC4)CC3)s2)cc1OC.CS(=O)(=O)O [Compound 22, morpholin-4-yl-acetic acid 1-[5-[(Z)-2-cyano-2-(3,4-dimethoxy-phenyl)-vinyl]-thiophen-2-yl]-piperidin-4-yl ester methanesulfonate]",,≥ 100 mg/mL,≥ 100 mg/mL,,,,,
"COc1ccc(/C(C#N)=C/c2ccc(N3CCC(OC(=O)CN4CCC(O)CC4)CC3)s2)cc1OC.CS(=O)(=O)O [Compound 6, (4-hydroxy-piperidin-1-yl)-acetic acid 1-[5-[(Z)-2-cyano-2-(3,4-dimethoxy-phenyl)-vinyl]-thiophen-2-yl]-piperidin-4-yl ester methanesulfonate]",,,,36.9%,0.82 ± 0.04 g,41.8%,0.76 ± 0.09 g,
"COc1ccc(/C(C#N)=C/c2ccc(N3CCC(OC(=O)CN4CCCC(CO)C4)CC3)s2)cc1OC.CS(=O)(=O)O (stereo not drawn) [Compound 14, (3-hydroxymethyl-piperidin-1-yl)-acetic acid 1-[5-[(Z)-2-cyano-2-(3,4-dimethoxy-phenyl)-vinyl]-thiophen-2-yl]-piperidin-4-yl ester methanesulfonate]",100 mg/mL,≥ 100 mg/mL,≥ 100 mg/mL,,,,,
"COc1ccc(/C(C#N)=C/c2ccc(N3CCC(OC(=O)CN4CCCC4)CC3)s2)cc1OC.CS(=O)(=O)O [Compound 10, pyrrolidin-1-yl-acetic acid 1-[5-[(Z)-2-cyano-2-(3,4-dimethoxy-phenyl)-vinyl]-thiophen-2-yl]-piperidin-4-yl ester methanesulfonate]",,≥ 100 mg/mL,≥ 100 mg/mL,,,,,
"COc1ccc(/C(C#N)=C/c2ccc(N3CCC(OC(=O)CN4CCC4)CC3)s2)cc1OC.CS(=O)(=O)O [Compound 8, azetidin-1-yl-acetic acid 1-[5-[(Z)-2-cyano-2-(3,4-dimethoxy-phenyl)-vinyl]-thiophen-2-yl]-piperidin-4-yl ester methanesulfonate]",,≥ 100 mg/mL,≥ 100 mg/mL,,,,,
"COc1ccc(/C(C#N)=C/c2ccc(N3CCC(OC(=O)CN4CCC(O)CC4)CC3)s2)cc1OC.Cl [Compound 4, (4-hydroxy-piperidin-1-yl)-acetic acid 1-[5-[(Z)-2-cyano-2-(3,4-dimethoxy-phenyl)-vinyl]-thiophen-2-yl]-piperidin-4-yl ester hydrochloride]",,,,31.8%,0.89 ± 0.09 g,46.4%,0.70 ± 0.11 g,
"COc1ccc(/C(C#N)=C/c2ccc(N3CCC(OC(=O)CN4CCCCC4)CC3)s2)cc1OC.CS(=O)(=O)O [Compound 5, piperidin-1-yl-acetic acid 1-[5-[(Z)-2-cyano-2-(3,4-dimethoxy-phenyl)-vinyl]-thiophen-2-yl]-piperidin-4-yl ester methanesulfonate]",100 mg/mL,≥ 100 mg/mL,≥ 100 mg/mL,50.9%,0.73 ± 0.12 g,55.9%,0.65 ± 0.16 g,
"COc1ccc(/C(C#N)=C/c2ccc(N3CCC(OC(=O)CN4CCCCC4C)CC3)s2)cc1OC.CS(=O)(=O)O (stereo not drawn) [Compound 12, (2-methyl-piperidin-1-yl)-acetic acid 1-[5-[(Z)-2-cyano-2-(3,4-dimethoxy-phenyl)-vinyl]-thiophen-2-yl]-piperidin-4-yl ester methanesulfonate]",100 mg/mL,≥ 100 mg/mL,≥ 100 mg/mL,,,,,
"COc1ccc(/C(C#N)=C/c2ccc(N3CCC(OC(=O)CN4CCCCC4)CC3)s2)cc1OC.Cl [Compound 3, piperidin-1-yl-acetic acid 1-[5-[(Z)-2-cyano-2-(3,4-dimethoxy-phenyl)-vinyl]-thiophen-2-yl]-piperidin-4-yl ester hydrochloride]",,,,51.9%,0.73 ± 0.07 g,54.7%,0.65 ± 0.11 g,
